Experimental data taken from ChEMBL document CHEMBL1201862, “PubChem BioAssay data set” (2004).
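Tested at 5 concentrations; 48 h exposure; 96-well plates; endpoints linearly interpolated, else capped at highest concentration. Here, GI50 denotes the concentration required for 50% inhibition of growth.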 Active and inactive are the calls of the source. Cut-off read from the data, not from the text of the source: active = GI50 up to about 1.1 µM and inactive = higher.

How the values were obtained:
Assay in all cases: inhibition of tumour cell growth, NCI panel, 48 h
SF-295 = system: SF-295
HCC 2998 = system: HCC 2998
MDA-MB-231 = system: MDA-MB-231
CCRF-CEM = system: CCRF-CEM
NCI-H460 = system: NCI-H460
UACC-62 = system: UACC-62
MOLT-4 = system: MOLT-4
MCF7 = system: MCF7
OVCAR-3 = system: OVCAR-3
A498 = system: A498
Hs-578T = system: Hs-578T
SK-MEL-2 = system: SK-MEL-2
Malme-3M = system: Malme-3M
K562 = system: K562
HCT-116 = system: HCT-116
KM12 = system: KM12
COLO 205 = system: COLO 205
HL-60 = system: HL-60
M14 = system: M14
SW-620 = system: SW-620

Measured: GI50

CSc1ccc(NC(=O)Nc2cc(C)ccn2)cc1
inactive: SF-295 > 100 µM | HCC 2998 91.4 µM | MDA-MB-231 > 100 µM | CCRF-CEM > 100 µM | NCI-H460 > 100 µM | UACC-62 > 100 µM | MOLT-4 > 100 µM | MCF7 > 100 µM | OVCAR-3 > 100 µM | A498 > 100 µM | Hs-578T > 100 µM | SK-MEL-2 > 100 µM | Malme-3M > 100 µM | K562 > 100 µM | HCT-116 > 100 µM | KM12 > 100 µM | COLO 205 > 100 µM | HL-60 > 100 µM | M14 > 100 µM | SW-620 > 100 µM

C[C@]12CC[C@@H]3c4cc(OCC(F)(F)F)c(O)cc4C(=O)C[C@H]3[C@@H]1CC[C@@H]2O
inactive: SF-295 3.6 µM | HCC 2998 6.11 µM | MDA-MB-231 12.9 µM | CCRF-CEM 3.39 µM | NCI-H460 4.71 µM | UACC-62 3.26 µM | MOLT-4 3.5 µM | MCF7 5.07 µM | OVCAR-3 2.88 µM | A498 7.93 µM | Hs-578T 4.92 µM | SK-MEL-2 11.4 µM | Malme-3M 3.63 µM | K562 2.26 µM | HCT-116 3.72 µM | KM12 10.6 µM | COLO 205 26.6 µM | HL-60 1.84 µM | M14 5.77 µM | SW-620 4.02 µM

Cc1cc(NC2=CC(=O)C(=O)c3ccccc32)no1
inactive: SF-295 9.1 µM | HCC 2998 20.7 µM | MDA-MB-231 2.83 µM | CCRF-CEM 9.66 µM | NCI-H460 6.87 µM | UACC-62 3.23 µM | MOLT-4 8.57 µM | MCF7 2.81 µM | OVCAR-3 3.85 µM | A498 18.7 µM | Hs-578T 9.4 µM | SK-MEL-2 4.75 µM | Malme-3M 2.49 µM | K562 3.89 µM | HCT-116 14.7 µM | KM12 12.6 µM | COLO 205 16.1 µM | HL-60 6.22 µM | M14 14.8 µM | SW-620 4.94 µM

COc1cc2cc(C(=O)N3CC(CCl)c4ccccc43)[nH]c2c(OC)c1OC (stereo not given)
inactive: SF-295 70.3 µM | HCC 2998 17.2 µM | MDA-MB-231 > 100 µM | CCRF-CEM > 36.6 µM | NCI-H460 17.5 µM | UACC-62 55.5 µM | MOLT-4 13.4 µM | MCF7 32.2 µM | OVCAR-3 > 100 µM | A498 18.2 µM | Hs-578T > 100 µM | SK-MEL-2 62.5 µM | Malme-3M 36.5 µM | K562 3.1 µM | HCT-116 67.9 µM | KM12 23.5 µM | COLO 205 33.8 µM | HL-60 16.3 µM | M14 62.5 µM | SW-620 60.1 µM

O=C1c2ccccc2CN1c1ccc(OCCN2CCCCC2)cc1
inactive: SF-295 > 10 µM | HCC 2998 > 10 µM | MDA-MB-231 > 10 µM | CCRF-CEM > 10 µM | NCI-H460 > 10 µM | UACC-62 > 10 µM | MOLT-4 > 10 µM | MCF7 > 10 µM | OVCAR-3 > 10 µM | A498 > 10 µM | Hs-578T > 10 µM | SK-MEL-2 > 10 µM | Malme-3M > 10 µM | K562 > 10 µM | HCT-116 > 10 µM | KM12 > 10 µM | COLO 205 > 10 µM | HL-60 > 10 µM | M14 > 10 µM | SW-620 > 10 µM

CC(C)(C)C1(COC(=O)c2ccc(N)cc2)COC1
inactive: SF-295 29.1 µM | HCC 2998 57.5 µM | MDA-MB-231 52.1 µM | CCRF-CEM 46 µM | NCI-H460 48.4 µM | UACC-62 55 µM | MOLT-4 30.5 µM | MCF7 45 µM | OVCAR-3 26.3 µM | A498 87.3 µM | Hs-578T > 100 µM | SK-MEL-2 > 100 µM | Malme-3M 89.7 µM | K562 46.3 µM | HCT-116 51.9 µM | KM12 58.5 µM | COLO 205 > 100 µM | HL-60 26.3 µM | M14 61 µM | SW-620 > 100 µM

N/C(=N\O)NCCN1CCCCCCC1
inactive: SF-295 > 100 µM | HCC 2998 > 100 µM | MDA-MB-231 > 100 µM | CCRF-CEM > 100 µM | NCI-H460 > 100 µM | UACC-62 > 100 µM | MOLT-4 > 100 µM | MCF7 26.5 µM | OVCAR-3 > 100 µM | A498 > 100 µM | Hs-578T > 100 µM | SK-MEL-2 > 100 µM | Malme-3M > 100 µM | K562 > 100 µM | HCT-116 12.1 µM | KM12 > 100 µM | COLO 205 > 100 µM | HL-60 > 100 µM | M14 > 100 µM | SW-620 > 100 µM
